This is an account of results in US5436263A, “Inhibitors of farnesyl-protein transferase” (Merck & Co., Inc., priority 1994, dated 1995).

The target in one test is T1, bovine FPTase (Bos taurus, UniProt P29702+P49355).
T1 construct: Farnesyl-protein transferase (FPTase) from bovine brain; from tissue; host or cells: bovine brain
Description: In vitro inhibition of Ras farnesyl-protein transferase, partially purified bovine FPTase. The test is classed as biochemical. The conditions noted are these: Ras-CVLS substrate, [3H]-FPP, pH 7.4, 31° C., 60 min, concentration giving 50% inhibition of FPTase, read-out: Inhibition of RAS farnesylation IC50, bovine. How it is done: The intrinsic farnesyl-protein transferase (FPTase) activity of representative compounds of this invention was measured by the assay as described below:
Farnesyl-protein transferase (FPTase) from bovine brain was chromatographed on DEAE-Sephacel (Pharmacia, 0-0.8M NaCl gradient elution), N-octyl agarose (Sigma, 0-0.6M NaCl gradient elution), and a mono Q HPLC column (Pharmacia, 0-0.3M NaCl gradient). Ras-CVLS (Cys-Val-Leu-Ser) at 3.5 mM, […] [^3 H]FPP, and the indicated compounds were incubated with this partially purified enzyme preparation. The FPTase inhibition data presented below is a measurement of the ability of the test compound to inhibit Ras farnesylation in vitro.
Assays of farnesyl-protein transferase. Partially purified bovine FPTase and Ras peptides (Ras-CVLS, Ras-CVIM and RAS-CAIL) were prepared as described by Schaber et al. J. Biol. Chem. 265:14701-14704 (1990) and Gibbs et al. PNAS U.S.A. 86:6630-6634 (1989), respectively. […] Precipitates were collected onto filter-mats using a TomTec Mach H cell harvestor, washed with 100% ethanol, dried and counted in an LKB β-plate counter. […] Percentage inhibition is measured by the amount of incorporation of farnesyl in the presence of the test compound when compared to the amount of incorporation in the absence of the test compound.

The target of another test is T2, human FPTase (Homo sapiens, UniProt P49354+P49356).
T2 construct: made in house
Description: In vitro inhibition of Ras farnesyl-protein transferase, human FPTase. As to conditions: 100 nM Ras-CVIM, 0.1% PEG 20,000, 10 μM ZnCl2, 30 min, concentration giving 50% inhibition of FPTase, read-out: Inhibition of RAS farnesylation IC50, human. The test is classed as biochemical. How it is done:
Inhibitory activity of the compounds of the instant invention may also be measured with an assay employing the recombinant human FPTase obtained as described by C. A. Omer et al. (Biochemistry, 32:5167-5176 (1993)).
Assays of farnesyl-protein transferase. Partially purified bovine FPTase and Ras peptides (Ras-CVLS, Ras-CVIM and RAS-CAIL) were prepared as described by Schaber et al. J. Biol. Chem. 265:14701-14704 (1990) and Gibbs et al. PNAS U.S.A. 86:6630-6634 (1989), respectively. Bovine FPTase was assayed in a volume of […] containing 100 mM N-(2-hydroxy ethyl) piperazine-N'-(2-ethane sulfonic acid) (HEPES), pH 7.4, 5 mM MgCl2, 5 mM dithiothreitol (DTT), […] [^3 H]-farnesyl diphosphate ([^3 H]-FPP; 740 CBq/mmol, New England Nuclear), 650 nM Ras-CVLS and 10 μg/ml FPTase at 31° C. for 60 min. Reactions were initiated with FPTase and stopped with 1 ml of 1.0M HCL in ethanol. Precipitates were collected onto filter-mats using a TomTec Mach H cell harvestor, washed with 100% ethanol, dried and counted in an LKB β-plate counter. The assay was linear with respect to both substrates, FPTase levels and time; less than 10 % of the [^3 H]-FPP was utilized during the reaction period. […] Percentage inhibition is measured by the amount of incorporation of farnesyl in the presence of the test compound when compared to the amount of incorporation in the absence of the test compound. […]

In the next test the test system is Ras farnesylation. As to conditions: HMG-CoA reductase inhibitors, Hancock et al., Casey et al., Schafer et al.; cited from earlier work.

pIC50: −log10 of the molar value.

With `COC(=O)C1=CC(CO)=COc2oc3cccc(O)c3c(=O)c21` [Compound 1, 7-hydroxy-3-(hydroxymethyl)-6-oxo-6H-oxepino[2,3-b][1]benzopyran-5-carboxylic acid methyl ester], the figures for the negative-log IC50 (pIC50) at bovine FPTase and on human FPTase were 6.52 and 5.57, respectively. As to `COC(=O)C1=CC(COC(C)=O)=COc2oc3cccc(OC(C)=O)c3c(=O)c21` [Compound 2, 7-acetyloxy-3-[(acetyloxy)methyl]-6-oxo-6H-oxepino[2,3-b][1]benzopyran-5-carboxylic acid methyl ester], the negative-log IC50 (pIC50) (as a rule, the IC50 on a negative log10 scale, so that one unit is a factor of ten) on bovine FPTase was 6.00. In the case of `CC[C@H](C)C(=O)O[C@H]1CCC=C2C=C[C@H](C)[C@H](CC[C@@H]3C[C@@H](O)CC(=O)O3)[C@H]21` [compactin], the “Inhibition of Ras farnesylation in vivo” value in the test with Ras farnesylation was “Inhibition of Ras farnesylation in vivo has been demonstrated”. With `CC[C@H](C)C(=O)O[C@H]1C[C@@H](C)C=C2C=C[C@H](C)[C@H](CC[C@@H]3C[C@@H](O)CC(=O)O3)[C@H]21` [lovastatin], the “Inhibition of Ras farnesylation in vivo” value with Ras farnesylation was “Inhibition of Ras farnesylation in vivo has been demonstrated”.
